Data reported in patent publication US12146183B2, “Compound and a method for identifying a protein using said compound” (CITY UNIVERSITY OF HONG KONG, priority 2020, dated 2024).

Experiments:
Format in all cases: biochemical
HDAC8 = molecular target: T1, HDAC8 (Homo sapiens, UniProt Q9BY41); test: Fluorimeter and HPLC/MS delipoylation assay of probe KTlip with HDAC8
T1 sequence (Q9BY41 1-377): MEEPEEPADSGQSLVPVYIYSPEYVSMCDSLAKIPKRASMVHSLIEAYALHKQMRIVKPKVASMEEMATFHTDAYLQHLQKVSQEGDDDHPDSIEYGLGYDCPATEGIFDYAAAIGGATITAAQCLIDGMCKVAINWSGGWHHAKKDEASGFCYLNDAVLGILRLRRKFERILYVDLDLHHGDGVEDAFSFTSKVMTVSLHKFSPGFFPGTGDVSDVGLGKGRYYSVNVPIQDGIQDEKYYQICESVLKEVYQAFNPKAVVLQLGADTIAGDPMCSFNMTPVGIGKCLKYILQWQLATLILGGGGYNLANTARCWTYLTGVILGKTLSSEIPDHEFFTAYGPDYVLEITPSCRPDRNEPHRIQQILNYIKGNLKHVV
Method: (§1) The capacity of HDACs to recognize and remove the lipoyl group of KTlip was examined by a fluorimeter assay. KTlip was incubated with various HDACs at 37° C. in HEPES buffer (pH 8.0). The fluorescence of the enzymatic reactions was then measured accordingly. […] Further HPLC and MS analysis confirmed that the molecular weight of the newly generated peak corresponded to the expected tandem de-lipoylated/exchanged product. […] After enzymatic reaction with Sirt2, a shift of peak absorption from 380 nm to 480 nm was clearly observed. Through detailed kinetic study, the first-order rate constant of the reaction was determined to be 0.013 min-1. The Km value of KTlip obtained from the fluorescent method matched well with that from the traditional HPLC method, underscoring that probe KTlip can serve as a useful tool for detecting enzymatic delipoylation activity.
(§2) The probe KTlip was incubated with sirtuin and NAD+ at 37° C. in 20 mM HEPES buffer (pH 8.0) containing 150 mM NaCl, 1 mM MgCl2, and 2.7 mM KCl. The enzymatic reaction volume was 50 μL. When the enzymatic reaction was complete, the reaction was applied for absorption and fluorescence measurement. The parameter set for absorbance measurement was as follows: UV-visible light, collection region: 300-550 nm. The parameter set for fluorescence measurements was as follows: λex=480 nm, slit width: 5 nm, collection region: 510-600 nm.

Sirt3 = molecular target: T2, Sirt3 (Homo sapiens, UniProt Q9NTG7); test: Fluorimeter delipoylation assay of probe KTlip with Sirt3; settings: Sirt3, 37° C., HEPES buffer pH 8.0
T2 construct: made in house
T2 sequence (Q9NTG7 1-399): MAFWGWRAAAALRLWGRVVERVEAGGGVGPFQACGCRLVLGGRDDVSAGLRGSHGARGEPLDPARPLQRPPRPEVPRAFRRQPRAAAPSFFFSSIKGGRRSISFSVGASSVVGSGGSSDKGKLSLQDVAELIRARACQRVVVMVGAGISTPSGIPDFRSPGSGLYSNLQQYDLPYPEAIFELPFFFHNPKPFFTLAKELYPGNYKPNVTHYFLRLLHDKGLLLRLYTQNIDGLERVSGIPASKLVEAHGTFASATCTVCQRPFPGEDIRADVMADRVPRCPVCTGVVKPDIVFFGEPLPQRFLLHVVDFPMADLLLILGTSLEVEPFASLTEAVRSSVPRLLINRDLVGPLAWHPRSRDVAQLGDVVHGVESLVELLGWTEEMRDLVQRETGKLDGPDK
Method: as §1, §2

Sirt1 = molecular target: T3, Sirt1 (Homo sapiens, UniProt Q96EB6); test: Fluorimeter delipoylation assay of probe KTlip with Sirt1; settings: Sirt1, 37° C., HEPES buffer pH 8.0
T3 construct: made in house
T3 sequence (Q96EB6 1-747): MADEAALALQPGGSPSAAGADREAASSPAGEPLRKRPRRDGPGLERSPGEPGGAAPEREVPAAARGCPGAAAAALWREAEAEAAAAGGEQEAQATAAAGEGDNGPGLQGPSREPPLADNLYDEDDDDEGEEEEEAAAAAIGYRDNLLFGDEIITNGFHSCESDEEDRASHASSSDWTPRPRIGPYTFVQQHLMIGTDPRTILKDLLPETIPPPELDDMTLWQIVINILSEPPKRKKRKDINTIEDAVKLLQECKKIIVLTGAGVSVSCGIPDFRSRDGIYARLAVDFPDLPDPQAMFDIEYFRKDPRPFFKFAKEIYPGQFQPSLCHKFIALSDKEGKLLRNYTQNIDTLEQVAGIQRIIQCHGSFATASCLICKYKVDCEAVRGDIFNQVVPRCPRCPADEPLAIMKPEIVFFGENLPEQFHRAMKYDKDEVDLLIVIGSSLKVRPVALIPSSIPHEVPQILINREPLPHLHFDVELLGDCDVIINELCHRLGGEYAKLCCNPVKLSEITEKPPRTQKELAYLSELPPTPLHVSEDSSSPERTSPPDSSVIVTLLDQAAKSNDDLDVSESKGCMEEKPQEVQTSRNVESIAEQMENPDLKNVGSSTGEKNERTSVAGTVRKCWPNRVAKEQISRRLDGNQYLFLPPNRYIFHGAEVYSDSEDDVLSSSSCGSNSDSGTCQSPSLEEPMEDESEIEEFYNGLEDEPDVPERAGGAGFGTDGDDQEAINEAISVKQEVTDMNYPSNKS
Method: as §1, §2

Sirt2 [1] = molecular target: T4, Sirt2 (Homo sapiens, UniProt Q8IXJ6); test: Fluorimeter delipoylation assay of probe KTlip with Sirt2
T4 construct: made in house
T4 sequence (Q8IXJ6 1-389): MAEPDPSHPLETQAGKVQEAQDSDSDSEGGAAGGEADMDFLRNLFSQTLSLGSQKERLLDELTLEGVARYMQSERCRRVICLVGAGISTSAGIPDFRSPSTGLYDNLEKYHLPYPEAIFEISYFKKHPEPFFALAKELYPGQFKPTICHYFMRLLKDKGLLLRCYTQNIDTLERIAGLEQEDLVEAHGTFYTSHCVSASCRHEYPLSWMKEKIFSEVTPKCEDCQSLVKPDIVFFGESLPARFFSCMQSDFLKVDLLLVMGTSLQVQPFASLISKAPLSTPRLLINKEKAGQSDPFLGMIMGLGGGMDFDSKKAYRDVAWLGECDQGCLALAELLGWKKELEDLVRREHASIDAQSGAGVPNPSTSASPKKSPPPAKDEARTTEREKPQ
Method: as §1, with “The Km value of KTlip obtained from the fluorescent method matched well with that from the traditional HPLC method, underscoring that probe KTlip can serve as a useful tool for detecting enzymatic delipoylation activity.” left out
as §2, with “The enzymatic reaction volume was 50 μL.” left out
The rate constant was calculated by fitting the fluorescence data to the following equation: Fluorescence intensity=1−exp(−kt) Enzymatic Reaction with Lipoylated Peptides.

Sirt5 = molecular target: T5, Sirt5 (Homo sapiens, UniProt Q9NXA8); test: Fluorimeter delipoylation assay of probe KTlip with Sirt5; settings: Sirt5, 37° C., HEPES buffer pH 8.0
T5 construct: made in house
T5 sequence (Q9NXA8 37-310): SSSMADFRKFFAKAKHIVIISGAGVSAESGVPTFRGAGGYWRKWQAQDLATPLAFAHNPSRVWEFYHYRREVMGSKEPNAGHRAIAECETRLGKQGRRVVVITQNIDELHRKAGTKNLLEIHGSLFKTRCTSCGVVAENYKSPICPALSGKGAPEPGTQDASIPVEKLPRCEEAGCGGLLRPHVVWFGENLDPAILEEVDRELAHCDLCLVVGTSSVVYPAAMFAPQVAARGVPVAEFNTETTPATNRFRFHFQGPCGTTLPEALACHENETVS
Method: as §1, §2

Sirt6 = molecular target: T6, Sirt6 (Homo sapiens, UniProt Q8N6T7); test: Fluorimeter delipoylation assay of probe KTlip with Sirt6; settings: Sirt6, 37° C., HEPES buffer pH 8.0
T6 construct: made in house
Method: as §1, §2

Sirt2 [2] = molecular target: T4, Sirt2; test: Steady-state kinetic study of lipoylated peptides with Sirt2 (HPLC); settings: relative to KAlip-1
Method: The delipoylation activity of HDAC8 was further examined using KAlip-5 and KAlip-1. […] A more detailed assessment of the enzymatic delipoylation reaction was performed. Time-dependent experiments and steady-state kinetics studies were conducted of KAlip-1, 5, 8, and 10 with Sirt2 (Table 1).
To determine the values of kcat, and Km, purified Sirt2 with 400 μM NAD+ was incubated with different concentrations of lipoylated peptide (0-120 μM) in 20 mM HEPES buffer (pH 8.0) containing 150 mM NaCl, 1 mM MgCl2, and 2.7 mM KCl at 37° C. for 10 min (KAlip-1 and KAlip-10) or 5 min (KAlip-5 and KAlip-8). The reactions were quenched by adding 250 μL of methanol and then applied for HPLC analysis with a linear gradient of 5% to 85% B (acetonitrile) for 30 min. The generated delipoylated product was quantified based on the peak area monitored at 280 nm. The kcat, and Km, values were calculated by curve-fitting Vinitiai/[E] versus [S]. The experiments were conducted in duplicate.

Sirt2 [3] = molecular target: T4, Sirt2; test: HPLC delipoylation assay of lipoylated peptides with Sirt2; settings: Sirt2 + NAD+, 37° C., monitored at 280 nm after 40 min
Method: A total of 11 lipoylated peptides (KAlip-1 to KAlip-11) were synthesised. The peptide sequences were selected from proteins that have been reported as being lipoylated (PDH, KDH, BCKDH, and GCV) and non-lipoylated proteins (e.g., histone). The peptides were synthesized with a standard Fmoc solid phase synthesis approach and characterized by LC-MS. The delipoylation activity was then determined by an HPLC assay. Compared with non-putative peptides, putative lipoylated peptides appeared to be more efficiently hydrolyzed by Sirt2. For example, the delipoylated product of KAlip-1 (derived from histone) after 40 min was determined to be 59%, which is less than that of putative lipoylated substrates such as KAlip-5 and KAlip-6 (derived from PDH).
The lipoylated peptides KAlip-1 to -11 were incubated with sirtuin and cofactor NAD+ at 37° C. in 20 mM HEPES buffer (pH 8.0) containing 150 mM NaCl, 1 mM MgCl2, and 2.7 mM KCl. The reaction volume was set to 50 μL. At each specific reaction time point, the reaction mixtures were quenched by adding 250 μL of methanol. The reactions were vortexed and centrifuged. Supernatant was collected and then analysed by reverse phase HPLC. The new peak generated was collected for ESI-MS or MALDI-TOF-MS analysis directly.

T6 sequence (Q8N6T7 whole entry, species assumed): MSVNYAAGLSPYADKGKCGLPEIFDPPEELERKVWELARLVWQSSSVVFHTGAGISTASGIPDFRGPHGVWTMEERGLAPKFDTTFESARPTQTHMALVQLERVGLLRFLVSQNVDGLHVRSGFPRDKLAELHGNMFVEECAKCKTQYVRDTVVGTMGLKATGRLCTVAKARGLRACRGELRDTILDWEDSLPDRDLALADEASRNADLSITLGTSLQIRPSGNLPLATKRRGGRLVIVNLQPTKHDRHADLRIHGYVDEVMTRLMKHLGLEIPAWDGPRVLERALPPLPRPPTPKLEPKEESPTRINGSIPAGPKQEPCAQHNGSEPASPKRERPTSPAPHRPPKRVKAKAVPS

Row | Compound | Fluorescence increase (HDAC8; HDAC8, 37° C., HEPES buffer pH 8.0) | De-lipoylated product (HPLC and MS analysis) (HDAC8; HDAC8 enzymatic reaction conditions) | Fluorescence increase (Sirt3) | Fluorescence signal (Sirt1) | Fluorescence increase (Sirt2 [1]; Sirt2, 37° C., HEPES buffer pH 8.0) [fold] | First-order rate constant of the reaction (Sirt2 [1]; Sirt2, fluorescence fit) [min⁻¹] | Fluorescence increase (Sirt5) | Fluorescence increase (Sirt6) | Catalytic efficiency of Sirt2 compared with nonputative H3K9 lipoyl peptide (KAlip-1) (Sirt2 [2]) | Delipoylation product (HPLC yield of delipoylated product) (Sirt2 [3]) [%]
1 | CC(C)(C)OC(=O)N[C@@H](CCCCNC(=O)CCCCC1CCSS1)C(=O)NCCOCCOc1ccc([N+](=O)[O-])c2nonc12 (stereo partly shown) [KTlip] | did not show a noticeable fluorescence increase | No de-lipoylated product was observed | did not show a noticeable fluorescence increase | much lower fluorescence signal | 60 | 0.013 | did not show a noticeable fluorescence increase | did not show a noticeable fluorescence increase |  | 
2 | ALESVK(lip)AASEWW [KAlip-10] |  |  |  |  |  |  |  |  | slightly higher | 71
